Experimental data reported in the supplement of paper PMC10307832.

Experiments:
Test in all cases: relative viability (nuclei count vs DMSO), 5 days (fraction); higher = more cells survive
Dasatinib + Phenformin = compound: Cc1nc(Nc2ncc(C(=O)Nc3c(C)cccc3Cl)s2)cc(N2CCN(CCO)CC2)n1 [Dasatinib] + N=C(N)NC(=N)NCCc1ccccc1 [Phenformin] (partner 250 µM)
In short: (§1)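 Each reported value is a median over duplicate plates. It expresses relative viability: treated-well nuclei count divided by vehicle-well nuclei count. Lung cancer cell lines in 1536-well plates were dosed by pin tool a day after seeding, alone with one drug or with a fixed anchor-drug dose plus five library-drug doses (not always all listed) in √10 steps, and nuclei were counted after 5 days.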

XMD13-2 + Decitabine = compound: C1CC1C(=O)NC2=NNC3=C2C=CC(=C3)C4=CC(=CC=C4)C(=O)NC5CC5 [XMD13-2] + Nc1ncn([C@H]2C[C@H](O)[C@@H](CO)O2)c(=O)n1 [Decitabine] (partner 2 µM)
In short: as §1

ALW-II-49-7 + Crizotinib = compound: Cc1ccc(C(=O)Nc2cccc(C(F)(F)F)c2)cc1Nc1cncc(C(N)=O)c1 [ALW-II-49-7] + C[C@@H](Oc1cc(-c2cnn(C3CCNCC3)c2)cnc1N)c1c(Cl)ccc(F)c1Cl [Crizotinib] (partner 1 µM)
In short: as §1

ALW-II-49-7 + OSI-027 = compound: Cc1ccc(C(=O)Nc2cccc(C(F)(F)F)c2)cc1Nc1cncc(C(N)=O)c1 [ALW-II-49-7] + COc1cccc2cc(-c3nc([C@H]4CC[C@H](C(=O)O)CC4)n4ncnc(N)c34)[nH]c12 [OSI-027] (partner 0.5 µM)
In short: as §1

| Cell Line | relative viability (Dasatinib + Phenformin; first compound 0.005 µM) | relative viability (Dasatinib + Phenformin; first compound 0.01581 µM) | relative viability (Dasatinib + Phenformin; first compound 0.05 µM) | relative viability (Dasatinib + Phenformin; first compound 0.1581 µM) | relative viability (Dasatinib + Phenformin; first compound 0.5 µM) | relative viability (XMD13-2 + Decitabine; first compound 0.05 µM) | relative viability (XMD13-2 + Decitabine; first compound 0.1581 µM) | relative viability (XMD13-2 + Decitabine; first compound 0.5 µM) | relative viability (XMD13-2 + Decitabine; first compound 1.581 µM) | relative viability (XMD13-2 + Decitabine; first compound 5 µM) | relative viability (ALW-II-49-7 + Crizotinib; first compound 0.08 µM) | relative viability (ALW-II-49-7 + Crizotinib; first compound 0.253 µM) | relative viability (ALW-II-49-7 + Crizotinib; first compound 0.8 µM) | relative viability (ALW-II-49-7 + Crizotinib; first compound 2.53 µM) | relative viability (ALW-II-49-7 + Crizotinib; first compound 8 µM) | relative viability (ALW-II-49-7 + OSI-027; first compound 0.08 µM) | relative viability (ALW-II-49-7 + OSI-027; first compound 0.253 µM) | relative viability (ALW-II-49-7 + OSI-027; first compound 0.8 µM) | relative viability (ALW-II-49-7 + OSI-027; first compound 2.53 µM) | relative viability (ALW-II-49-7 + OSI-027; first compound 8 µM) |
| --- | --- | --- | --- | --- | --- | --- | --- | --- | --- | --- | --- | --- | --- | --- | --- | --- | --- | --- | --- | --- |
| LOU-NH91 | 0.734 | 0.678 | 0.566 | 0.489 | 0.288 | 0.815 | 0.844 | 0.802 | 0.837 | 0.882 | 0.744 | 0.767 | 0.728 | 0.466 | 0.703 | 0.666 | 0.733 | 0.684 | 0.729 | 0.676 |
| SW 900 | 0.489 | 0.568 | 0.53 | 0.466 | 0.294 | 0.51 | 0.454 | 0.447 | 0.439 | 0.447 | – | – | – | – | – | 0.426 | 0.642 | 0.555 | 0.445 | 0.347 |
| LCLC-103H | 0.367 | 0.3 | 0.267 | 0.298 | 0.127 | 0.712 | 0.748 | 0.765 | 0.719 | 0.756 | 1.04 | 1.06 | 1.07 | 1.02 | 1.18 | 0.43 | 0.462 | 0.474 | 0.463 | 0.377 |
| NCI-H1915 | 0.339 | 0.313 | 0.266 | 0.17 | 0.164 | 0.261 | 0.268 | 0.251 | 0.256 | 0.268 | 0.896 | 0.863 | 0.828 | 0.682 | 0.572 | 0.662 | 0.653 | 0.573 | 0.49 | 0.381 |
| IA-LM | – | – | – | – | – | – | – | – | – | – | 0.825 | 0.754 | 0.745 | 0.346 | 0.18 | – | – | – | – | – |
| NCI-H1734 | 0.314 | 0.328 | 0.288 | 0.249 | 0.235 | 0.529 | 0.484 | 0.561 | 0.487 | 0.528 | 0.787 | 0.642 | 0.614 | 0.762 | 0.651 | 0.602 | 0.652 | 0.55 | 0.556 | 0.534 |
| SK-MES-1 | 0.721 | 0.681 | 0.669 | 0.361 | 0.171 | 0.429 | 0.409 | 0.373 | 0.339 | 0.455 | 0.885 | 0.979 | 0.948 | 0.926 | 0.7 | 0.588 | 0.547 | 0.578 | 0.456 | 0.331 |
| Calu-6 | – | – | – | – | – | – | – | – | – | – | 0.736 | 0.737 | 0.718 | 0.904 | 0.554 | – | – | – | – | – |
| HCC-15 | 0.482 | 0.475 | 0.462 | 0.287 | 0.269 | 0.768 | 0.652 | 0.725 | 0.598 | 0.627 | 0.805 | 0.86 | 0.786 | 0.831 | 0.886 | 0.647 | 0.75 | 0.619 | 0.663 | 0.536 |
| SK-LU-1 | 0.342 | 0.257 | 0.193 | 0.179 | 0.148 | 0.569 | 0.601 | 0.746 | 0.616 | 0.628 | 0.863 | 0.898 | 0.988 | 0.853 | 0.584 | 0.269 | 0.345 | 0.313 | 0.289 | 0.252 |
| NCI-H2023 | 0.355 | 0.331 | 0.291 | 0.224 | 0.173 | 0.255 | 0.214 | 0.215 | 0.22 | 0.195 | 0.703 | 0.714 | 0.554 | 0.622 | 0.729 | 0.379 | 0.44 | 0.37 | 0.354 | 0.3 |
| HCC-366 | 0.606 | 0.571 | 0.484 | 0.426 | 0.336 | 0.332 | 0.34 | 0.33 | 0.341 | 0.378 | 0.777 | 0.592 | 0.382 | 0.682 | 0.609 | 0.977 | 1.17 | 0.731 | 0.985 | 0.627 |
| NCI-H1395 | 0.398 | 0.435 | 0.369 | 0.305 | 0.304 | 0.845 | 0.738 | 0.753 | 0.661 | 0.706 | – | – | – | – | – | 0.593 | 0.69 | 0.736 | 0.677 | 0.62 |
| NCI-H2228 | 0.354 | 0.298 | 0.28 | 0.242 | 0.218 | – | – | – | – | – | 0.541 | 0.505 | 0.423 | 0.483 | 0.27 | 0.502 | 0.269 | 0.496 | 0.59 | 0.471 |
| NCI-H2342 | 0.626 | 0.482 | 0.556 | 0.356 | 0.304 | 0.724 | 0.841 | 0.778 | 0.716 | 0.807 | – | – | – | – | – | 0.532 | 0.535 | 0.602 | 0.592 | 0.562 |
| NCI-H1793 | 0.319 | 0.314 | 0.313 | 0.264 | 0.2 | 0.517 | 0.481 | 0.581 | 0.431 | 0.507 | – | – | – | – | – | 0.257 | 0.301 | 0.24 | 0.235 | 0.248 |
| NCI-H1299 | – | – | – | – | – | – | – | – | – | – | 0.972 | 0.954 | 0.963 | 0.861 | 0.736 | – | – | – | – | – |
| NCI-H522 | 0.634 | 0.625 | 0.587 | 0.599 | 0.5 | 0.615 | 0.654 | 0.633 | 0.546 | 0.721 | – | – | – | – | – | 0.795 | 0.753 | 0.634 | 0.718 | 0.749 |
| NCI-H1623 | 0.568 | 0.564 | 0.526 | 0.413 | 0.349 | – | – | – | – | – | – | – | – | – | – | 0.416 | 0.408 | 0.371 | 0.351 | 0.357 |
| NCI-H1648 | – | – | – | – | – | 0.507 | – | 0.515 | 0.475 | 0.579 | – | – | – | – | – | 0.254 | 0.264 | 0.264 | 0.255 | 0.215 |
| NCI-H1703 | – | – | – | – | – | – | – | – | – | – | 0.859 | 0.713 | 0.554 | 0.309 | 0.211 | – | – | – | – | – |
